“And” between values parts separate entries of the source, which are not always exact repeats. Equal values may be shown once. Read-outs that look alike come from different tables or passages of the source.
How the values were obtained:
[1] = Phase 1a single ascending dose study: UV-4 in pooled urine, urinary recovery and renal clearance; assay type: in vivo, human; details: for dose excreted: human, urine, oral, 48 hours
Procedure: Serial blood samples were collected at pre-dose (0 hour) and 0.5, 1, 1.5, 2, 2.5, 3, 4, 6, 9, 12, 18, 24, 36, and 48 hours post-dose for assessment of UV-4 concentrations in plasma. Pooled urine samples were collected at pre-dose (-12 to 0 hour) and from 0 to 6, 6 to 12, 12 to 24, and 24 to 48 hours post-dose for assessment of UV-4 concentrations in urine. Plasma and urine concentrations of UV-4 were determined by means of validated, sensitive, and specific high-performance liquid chromatography/tandem mass spectrometric (LC-MS/MS) assays. UV-4 plasma and urine concentrations and PK parameters were listed and summarized by dose, as appropriate. Only the 48 subjects who received active investigational product were included in the PK analysis population.
8.2.3 Specimen Preparation, Handling, and Shipping
8.2.3.1 Instructions for Specimen Preparation, Handling, and Storage
The collected PK blood samples (2 mL) will be placed on ice after blood draw, and within 1 hour centrifuged at room temperature at approximately 3000 revolutions per minute for 15 minutes. Plasma will then be harvested and split into 4 aliquots of approximately 250 μ L and stored frozen at -20°C until shipped.
Urine samples (approximately 10 mL) for determination of UV-4 concentrations in urine will be taken from the total volume provided during each collection period. The total volume of each urine collection will be recorded along with the start/stop time for each urine collection interval.
Analysis of plasma and urine for UV-4 will be performed by the qualified bioanalytical laboratory, Quintiles Bioservices, Inc., Ithaca, New York 14950. Instructions for the proper preparation, handling, storage and shipping of specimens will be provided separately in a study-specific laboratory manual (i.e., Biopacket).
8.2.3.2 Specimen Shipment […]
The following single-dose urine PK parameters will be estimated from the UV-4 urine concentration-time data collected, as appropriate:
Ae Amount of UV-4 excreted in urine unchanged, calculated for each collection interval and cumulatively across intervals fe Fraction of UV-4 excreted in urine unchanged, calculated for each collection interval and cumulatively across intervals […]
Additional UV-4 PK parameters may be calculated at the discretion of the […]
Plasma concentrations and plasma and urine PK parameters will be summarized by treatment using descriptive statistics, as appropriate. Figures for the arithmetic mean (and SD) concentration-time data will be presented for all doses on both a linear and semi-logarithmic scale. Individual concentration-time data will be graphically presented on linear and semi-logarithmic scales. Scatter plots of individual and geometric mean PK parameters versus dose will be presented. Additional graphical presentations of PK data may be added at the discretion of the PK analyst.
Dose proportionality of Cmax, AUC(0-last), and AUC(0-inf) will be assessed graphically and statistically using the power model approach with the logarithm of PK parameters AUC(0-inf) and Cmax as the dependent variables and the logarithm of the dose as the independent variable: ([AUC(0-inf), AUC(0-last), or Cmax]=α *doseβ).
11.4.7 Deviation from Original Analysis Plan
Deviations from the formal statistical analysis plan will be noted in the final Clinical Study

[2] = set-up: method as in Investigator’s Brochure (IB); details: dogs, ref Investigator’s Brochure (IB), cited from earlier work

Question: Which “CONCENTRATION UV4 in human urine” value ([1]; Cohort 1, nominal day 1, nominal hour 0 (pre-dose), individual subjects) does the source give for `COCCCCCCCCCN1C[C@H](O)[C@@H](O)[C@H](O)[C@H]1CO` [UV4] here?
Answer: <LLOQ (0.500) ng/mL

Question: What about the “CONCENTRATION UV4 in human urine” value ([1]; Cohort 1, nominal day 1, nominal hour 6, individual subjects) of the same compound?
Answer: 650 ng/mL and 868 ng/mL

Question: What about the “CONCENTRATION UV4 in human urine” value ([1]; Cohort 1, nominal day 1, nominal hour 12, individual subjects) of the same compound?
Answer: 414 ng/mL and 455 ng/mL

Question: And the “CONCENTRATION UV4 in human urine” value ([1]; Cohort 1, nominal day 2, nominal hour 24, individual subjects)?
Answer: 99.1 ng/mL and 451 ng/mL

Question: What about the “CONCENTRATION UV4 in human urine” value ([1]; Cohort 1, nominal day 2, nominal hour 48, individual subjects) of the same compound?
Answer: 74.6 ng/mL and 166 ng/mL

Question: And the “CONCENTRATION UV4 in human urine” value ([1]; Cohort 3, nominal day 1, nominal hour 0 (pre-dose), individual subjects)?
Answer: <LLOQ (0.500) ng/mL

Question: What about the “CONCENTRATION UV4 in human urine” value ([1]; Cohort 3, nominal day 1, nominal hour 6, individual subjects) of the same compound?
Answer: 6240 ng/mL and 8650 ng/mL and 11700 ng/mL

Question: And the “CONCENTRATION UV4 in human urine” value ([1]; Cohort 3, nominal day 1, nominal hour 12, individual subjects)?
Answer: 8820 ng/mL and 2090 ng/mL and 1200 ng/mL and 11200 ng/mL

Question: What about the “CONCENTRATION UV4 in human urine” value ([1]; Cohort 3, nominal day 2, nominal hour 24, individual subjects) of the same compound?
Answer: 3300 ng/mL and 754 ng/mL and 614 ng/mL and 3690 ng/mL

Question: What about the “CONCENTRATION UV4 in human urine” value ([1]; Cohort 3, nominal day 2, nominal hour 48, individual subjects) of the same compound?
Answer: 721 ng/mL and 248 ng/mL and 147 ng/mL and 900 ng/mL

Question: And the “CONCENTRATION UV4 in human urine” value ([1]; Cohort 4, nominal day 1, nominal hour 0 (pre-dose), individual subjects)?
Answer: <LLOQ (0.500) ng/mL and 1.11 ng/mL

Question: What about the “CONCENTRATION UV4 in human urine” value ([1]; Cohort 4, nominal day 1, nominal hour 6, individual subjects) of the same compound?
Answer: 46400 ng/mL and 48400 ng/mL and 30900 ng/mL and 140000 ng/mL and 54900 ng/mL and 36000 ng/mL

Question: And the “CONCENTRATION UV4 in human urine” value ([1]; Cohort 4, nominal day 1, nominal hour 12, individual subjects)?
Answer: 3970 ng/mL and 24500 ng/mL and 26000 ng/mL and 15000 ng/mL and 33100 ng/mL and 11200 ng/mL

Question: And the “CONCENTRATION UV4 in human urine” value ([1]; Cohort 4, nominal day 2, nominal hour 24, individual subjects)?
Answer: 1230 ng/mL and 7560 ng/mL and 8120 ng/mL and 8370 ng/mL and 4550 ng/mL and 3920 ng/mL

Question: What about the “CONCENTRATION UV4 in human urine” value ([1]; Cohort 4, nominal day 2, nominal hour 48, individual subjects) of the same compound?
Answer: 367 ng/mL and 2090 ng/mL and 1260 ng/mL and 1810 ng/mL and 473 ng/mL and 648 ng/mL

Question: And the “CONCENTRATION UV4 in human urine” value ([1]; Cohort 5, nominal day 1, nominal hour 0 (pre-dose), individual subjects)?
Answer: <LLOQ (0.500) ng/mL

Question: What about the “CONCENTRATION UV4 in human urine” value ([1]; Cohort 5, nominal day 1, nominal hour 6, individual subjects) of the same compound?
Answer: 122000 ng/mL and 104000 ng/mL and 75800 ng/mL and 62800 ng/mL and 65800 ng/mL and 68800 ng/mL

Question: What about the “CONCENTRATION UV4 in human urine” value ([1]; Cohort 5, nominal day 1, nominal hour 12, individual subjects) of the same compound?
Answer: 17100 ng/mL and 26900 ng/mL and 16200 ng/mL and 22000 ng/mL and 21200 ng/mL and 18200 ng/mL

Question: What about the “CONCENTRATION UV4 in human urine” value ([1]; Cohort 5, nominal day 2, nominal hour 24, individual subjects) of the same compound?
Answer: 5200 ng/mL and 6760 ng/mL and 4560 ng/mL and 7550 ng/mL and 11900 ng/mL and 7200 ng/mL

Question: What about the “CONCENTRATION UV4 in human urine” value ([1]; Cohort 5, nominal day 2, nominal hour 48, individual subjects) of the same compound?
Answer: 706 ng/mL and 961 ng/mL and 775 ng/mL and 2920 ng/mL and 2030 ng/mL and 1860 ng/mL

Question: And the “CONCENTRATION UV4 in human urine” value ([1]; Cohort 6, nominal day 1, nominal hour 0 (pre-dose), individual subjects)?
Answer: <LLOQ (0.500) ng/mL

Question: And the “CONCENTRATION UV4 in human urine” value ([1]; Cohort 6, nominal day 1, nominal hour 6, individual subjects)?
Answer: 357000 ng/mL and 97600 ng/mL and 326000 ng/mL and 75900 ng/mL and 182000 ng/mL and 126000 ng/mL

Question: What about the “CONCENTRATION UV4 in human urine” value ([1]; Cohort 6, nominal day 1, nominal hour 12, individual subjects) of the same compound?
Answer: 35000 ng/mL and 12100 ng/mL and 104000 ng/mL and 38000 ng/mL and 15200 ng/mL and 19200 ng/mL

Question: What about the “CONCENTRATION UV4 in human urine” value ([1]; Cohort 6, nominal day 2, nominal hour 24, individual subjects) of the same compound?
Answer: 6830 ng/mL and 2550 ng/mL and 4060 ng/mL and 7760 ng/mL and 6220 ng/mL and 12700 ng/mL

Question: And the “CONCENTRATION UV4 in human urine” value ([1]; Cohort 6, nominal day 2, nominal hour 48, individual subjects)?
Answer: 1470 ng/mL and 442 ng/mL and 1480 ng/mL and 1390 ng/mL and 830 ng/mL

Question: Which “Finding at the highest dose” value ([2]; 150 mg/kg/dose TID for seven days) does the source give for `COCCCCCCCCCN1C[C@H](O)[C@@H](O)[C@H](O)[C@H]1CO` [UV-4, N-(9’-methoxynonyl)-1-deoxynojirimycin] here?
Answer: severe GI effects

Question: What about the “Finding at 10 mg/kg/dose TID” value ([2]; 10 mg/kg) of the same compound?
Answer: diarrhea was still apparent although not adverse

Question: And the “Time over which UV-4 was quantifiable in pooled urine” value ([1]; all doses (3 to 1000 mg), entire collection interval)?
Answer: 48 h

Question: What about the dose excreted ([1]; 3 to 1000 mg dose range, read-out: UV-4 recovery in urine, range of dose group means) of the same compound?
Answer: 39.8 to 55.1%

Question: What about the dose excreted ([1]; 10 to 1000 mg dose range, read-out: Urinary recovery, range of dose group means) of the same compound?
Answer: 46.4 to 55.1%

Question: What about the “Renal clearance as share of UV-4 apparent systemic clearance” value ([1]; in vivo) of the same compound?
Answer: ≥ 50%
